“And” between values parts separate entries of the source, which are not always exact repeats. Identical values can stand only once.
Columns and labels:
METTL3-14 [1] = biological target: T1, METTL3-14 (Homo sapiens, UniProt Q86U44); test: Cellular degradation assay (Western blot) in THP-1; type: cell-based; design: METTL3–14 degradation up to 70% of the endogenous level; endogenous in cells; host or cells: MOLM-13, KASUMI-1, THP-1, NOMO-1; conditions: THP-1, 2 μM, 24 h
Method: (§1) MOLM-13, NOMO-1, THP-1, Kasumi-1, PC3, and DU145 cell lines were obtained from DSMZ-German Collection of Microorganisms and Cell Cultures GmbH. Cells were cultured in RPMI 1640 medium (11875093, Thermo Fisher Scientific) containing 10% FBS (16140071, Thermo Fisher Scientific) and 1% penicillin-streptomycin (15140122, Thermo Fisher Scientific) in 5% CO2 at 37 °C in a humidified incubator, with maintained cell densities at 0.5–1 × 10^6 cells/mL. All cell lines were tested negative for mycoplasma contamination (PCR-based assay by Microsynth, Switzerland).
(§2) METTL3 (and METTL14) protein degradation was monitored by Western blot. Cells were treated with the indicated concentration of PROTACs or DMSO control (0.1% (v/v)) for 24h, 37 °C with 5% CO2. Samples were then collected and lysed with RIPA buffer with added protease inhibitors (11697498001, Roche). After SDS-PAGE, proteins were transferred to a nitrocellulose membrane, blocked (with 5% milk, 0.5% BSA in TBST buffer), and incubated overnight with primary antibodies. The following antibodies were used: GAPDH (no. 2118, Cell Signaling, 1:4000), β-actin (ab8226, Abcam, 1:2000), METTL3 (ab195352, Abcam, 1:1000), and METTL14 (ab220031, Abcam, 1:1000). Membranes were scanned using an LI-COR Odyssey DLx imager after incubation with appropriate secondary antibodies (antimouse IgG IRDye 680RD (926–68072, LI-COR, 1:10000) and goat anti-Rabbit IgG IRDye 800CW (926–32211, LI-COR, 1:10000)). Densitometry was performed in Image Studio Lite software and analyzed in GraphPad Prism 9.

[2] = biological target: T2, ternary complex CRBN/PROTAC/METTL3–14 (Homo sapiens, UniProt Q86U44+Q96SW2); test: FRET-based ternary complex formation assay (TCFA); type: binding; conditions: for TCFA amplitude (mean ± SEM): Hook curve amplitude, fraction of the maximum of compound 16; for ECmax (nM) ± SD: PROTAC concentration at the maximum of the signal in the TCFA; for ECmax: TCFA, peak of the Hook curve
T2 construct: methyltransferase domains (MTD) of METTL3 (residues 354–580); His6 (N, cleaved yes); made in house; host or cells: METTL3-MTD/METTL14-MTD: baculovirus/Sf9; CRBN-TBD: E. coli Rosetta (DE3), co-expressed with BirA
T2 sequence (Q86U44 354-580): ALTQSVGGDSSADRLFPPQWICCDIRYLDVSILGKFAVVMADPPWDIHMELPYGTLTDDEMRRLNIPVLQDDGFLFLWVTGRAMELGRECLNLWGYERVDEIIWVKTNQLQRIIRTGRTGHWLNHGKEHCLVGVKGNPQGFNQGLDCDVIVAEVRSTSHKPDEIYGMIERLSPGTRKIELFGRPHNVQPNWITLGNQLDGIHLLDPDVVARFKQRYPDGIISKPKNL
T2 sequence (Q9HCE5 107-395 partner limits assumed): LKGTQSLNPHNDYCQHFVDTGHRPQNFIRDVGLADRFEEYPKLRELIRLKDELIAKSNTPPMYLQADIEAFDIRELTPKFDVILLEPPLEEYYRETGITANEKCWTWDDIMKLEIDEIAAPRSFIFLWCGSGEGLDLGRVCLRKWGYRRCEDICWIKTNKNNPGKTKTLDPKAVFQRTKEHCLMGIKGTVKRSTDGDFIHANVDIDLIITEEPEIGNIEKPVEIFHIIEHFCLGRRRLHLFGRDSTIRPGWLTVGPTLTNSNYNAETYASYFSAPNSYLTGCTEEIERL
T2 sequence (Q96SW2 318-442): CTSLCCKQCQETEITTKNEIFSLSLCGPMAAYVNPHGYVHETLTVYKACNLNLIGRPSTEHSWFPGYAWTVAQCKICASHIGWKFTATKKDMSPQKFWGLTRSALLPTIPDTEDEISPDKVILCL
Method in brief: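 HTRF/TR-FRET measurement of PROTAC-induced complex between GST-tagged METTL3–14 and biotinylated CRBN^TBD-Avi (10 nM final) with 0.8 nM Eu^3+ anti-GST antibody, in 50 mM HEPES pH 7.5, 150 mM NaCl, 0.1% BSA, 100 mM KF. Emission ratio used; ECmax and Hook-curve amplitude taken from Gaussian fit or highest-signal data point.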

METTL3 [3] = biological target: T3, METTL3 (Homo sapiens, UniProt Q86U44); test: Cellular degradation assay (Western blot) in PC3; type: cell-based; conditions: PC3, 2 μM, 24 h
T3 construct: METTL3–14 degradation up to 70% of the endogenous level; endogenous in cells; host or cells: MOLM-13, PC3, DU145
T3 sequence (Q86U44 2-580 limits assumed): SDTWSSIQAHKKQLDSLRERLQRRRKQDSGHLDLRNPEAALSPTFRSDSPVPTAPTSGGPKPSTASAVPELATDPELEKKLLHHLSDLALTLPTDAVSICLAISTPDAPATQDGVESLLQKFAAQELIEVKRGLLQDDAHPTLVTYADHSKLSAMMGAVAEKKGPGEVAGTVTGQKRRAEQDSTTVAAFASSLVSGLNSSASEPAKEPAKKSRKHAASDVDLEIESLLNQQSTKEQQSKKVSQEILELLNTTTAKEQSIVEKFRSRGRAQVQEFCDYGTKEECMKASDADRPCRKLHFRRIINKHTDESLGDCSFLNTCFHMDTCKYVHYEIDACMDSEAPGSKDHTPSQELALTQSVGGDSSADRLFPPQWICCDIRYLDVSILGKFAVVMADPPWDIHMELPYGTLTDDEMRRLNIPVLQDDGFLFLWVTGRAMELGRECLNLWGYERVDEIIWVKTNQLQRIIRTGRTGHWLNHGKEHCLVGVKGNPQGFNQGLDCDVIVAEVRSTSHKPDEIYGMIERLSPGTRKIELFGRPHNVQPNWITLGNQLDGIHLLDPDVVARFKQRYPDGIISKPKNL
T3 sequence (Q9HCE5 whole entry partner): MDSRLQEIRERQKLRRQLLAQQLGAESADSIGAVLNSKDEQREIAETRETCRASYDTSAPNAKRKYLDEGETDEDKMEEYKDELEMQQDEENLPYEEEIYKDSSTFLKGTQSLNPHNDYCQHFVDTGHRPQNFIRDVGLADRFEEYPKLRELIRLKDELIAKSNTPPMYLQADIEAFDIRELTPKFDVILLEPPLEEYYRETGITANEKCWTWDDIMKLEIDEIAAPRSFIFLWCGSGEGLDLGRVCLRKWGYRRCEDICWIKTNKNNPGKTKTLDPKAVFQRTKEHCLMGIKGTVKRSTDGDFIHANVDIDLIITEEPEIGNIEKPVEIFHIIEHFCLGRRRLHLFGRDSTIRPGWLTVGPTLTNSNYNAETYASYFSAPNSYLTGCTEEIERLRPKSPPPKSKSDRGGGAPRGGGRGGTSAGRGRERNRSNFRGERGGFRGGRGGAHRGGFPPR
Method: as §1
as §2, with “Membranes were scanned using an LI-COR Odyssey DLx imager after incubation with appropriate secondary antibodies (antimouse IgG IRDye 680RD (926–68072, LI-COR, 1:10000) and goat anti-Rabbit IgG IRDye 800CW (926–32211, LI-COR, 1:10000)).” left out

METTL3 [4] = biological target: T3, METTL3; test: Cellular degradation assay (Western blot), METTL3 in MOLM-13; type: cell-based; conditions: for MOLM-13 West. blot at 24h 2 μM comp conc. Degradation (%) of METTL3: MOLM-13, 24 h, 2 μM compound
Method in brief: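 Leukemia and prostate lines are grown in RPMI 1640 plus 10% FBS, then exposed for 24h to PROTAC or vehicle. Lysates are immunoblotted for METTL3 and METTL14, and band intensities are quantified.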

METTL3-14 [5] = biological target: T1, METTL3-14; test: Cellular degradation assay (Western blot) in NOMO-1; type: cell-based; design: METTL3–14 degradation up to 70% of the endogenous level; endogenous in cells; host or cells: MOLM-13, KASUMI-1, THP-1, NOMO-1; conditions: NOMO-1, 2 μM, 24 h
Method: as §1, §2

METTL3 [6] = biological target: T3, METTL3; test: Cellular thermal shift assay (CETSA) in MOLM-13, METTL3; type: cell-based; conditions: MOLM-13, 54 °C
Method: One million of MOLM-13 cells were suspended in 100 μL of PBS (10010023, Thermo Fisher Scientific) containing 2× protease inhibitor cocktail (11697498001, Roche), for each condition tested. Cells were incubated with compounds or DMSO control (1% (v/v)) for 1 h at 37 °C. They were then heat treated at 54 °C in a thermoblock for 3 min, followed by cooling to room temperature (3 min). Next, samples were lysed by threefreeze–thaw cycles in liquid nitrogen and centrifuge at 16000 g for 30 min, 4 °C. Equal volumes of control and tested samples (12 μL) were analyzed by Western blot. The changes in the amount of METTL3 protein (after normalization for β-actin and/or GAPDH) were monitored by performing densitometry in Image Studio Lite software and analyzed in GraphPad Prism 9.

Cereblon (CRBN) = biological target: T4, Cereblon (CRBN) (Homo sapiens, UniProt Q96SW2); test: Cellular thermal shift assay (CETSA) in MOLM-13, Cereblon; type: cell-based; conditions: MOLM-13, 54 °C
T4 construct: endogenous in cells; host or cells: MOLM-13
T4 sequence (Q96SW2 whole entry): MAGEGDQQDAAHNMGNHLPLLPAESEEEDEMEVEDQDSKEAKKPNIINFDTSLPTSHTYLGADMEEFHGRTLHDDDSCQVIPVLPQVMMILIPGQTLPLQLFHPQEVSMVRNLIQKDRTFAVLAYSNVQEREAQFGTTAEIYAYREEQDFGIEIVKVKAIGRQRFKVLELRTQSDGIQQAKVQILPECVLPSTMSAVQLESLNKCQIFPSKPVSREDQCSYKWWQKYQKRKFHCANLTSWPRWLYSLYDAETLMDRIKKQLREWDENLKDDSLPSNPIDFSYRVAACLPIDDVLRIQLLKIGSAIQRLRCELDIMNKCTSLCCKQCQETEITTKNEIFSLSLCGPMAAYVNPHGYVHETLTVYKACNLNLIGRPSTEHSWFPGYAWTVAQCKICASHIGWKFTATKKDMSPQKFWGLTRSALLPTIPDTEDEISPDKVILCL

T1 sequence (Q86U44 2-580 limits assumed): as the sequence (Q86U44 2-580 limits assumed) above
T1 sequence (Q9HCE5 whole entry partner): as the sequence (Q9HCE5 whole entry partner) above

Compound | degradation levels of METTL3 and METTL14 (METTL3-14 [1]) | TCFA amplitude (mean ± SEM) [2] | ECmax (nM) ± SD [2] | reduction of METTL3 (METTL3 [3]) | MOLM-13 West. blot at 24h 2 μM comp conc. Degradation (%) of METTL3 (METTL3 [4]) | degradation levels of METTL3 and METTL14 (METTL3-14 [5]) | ECmax [2] | stabilization of METTL3 (CETSA) (METTL3 [6]) | stabilization of Cereblon (CETSA) (Cereblon (CRBN)) | METTL3 reduction at highest effect in concentration dependence (METTL3 [4]; MOLM-13, 1 μM)
CC1(C)CCN(Cc2cc(F)c(N3CC(=O)NC4(CCN(c5cc(NCC6CCN(C(=O)CCCNc7cccc8c7C(=O)N(C7CCC(=O)NC7=O)C8=O)CC6)ncn5)CC4)C3)cc2F)CC1 (stereo not drawn) [Compound 22] | comparable to those in MOLM-13 | 1.1 ± 0.1 | 190 ± 90 nM | 64% | 46% and 46 ± 6% | comparable to those in MOLM-13 | – | – | – | –
CC1(C)CCN(Cc2cc(F)c(N3CC(=O)NC4(CCN(c5cc(NCCN6CCN(C(=O)CCCCCNc7cccc8c7C(=O)N(C7CCC(=O)NC7=O)C8=O)CC6)ncn5)CC4)C3)cc2F)CC1 (stereo not drawn) [Compound 30] | comparable to those in MOLM-13 | 1.0 ± 0.1 | 70 ± 30 nM | – | – | comparable to those in MOLM-13 | submicromolar | – | – | –
CC1(C)CCN(Cc2cc(F)c(N3CC(=O)NC4(CCN(c5cc(NCc6cccc(CNC(=O)CCCNc7cccc8c7C(=O)N(C7CCC(=O)NC7=O)C8=O)c6)ncn5)CC4)C3)cc2F)CC1 (stereo not drawn) [Compound 14] | comparable to those in MOLM-13 | 1.2 ± 0.0 | 250 ± 0 nM | – | 52% and 52 ± 8% | comparable to those in MOLM-13 | submicromolar | stabilize METTL3 in a concentration-dependent manner | visible | around 50%
CC1(C)CCN(Cc2cc(F)c(N3CC(=O)NC4(CCN(c5cc(NCC6CCN(C(=O)CCCCCNc7cccc8c7C(=O)N(C7CCC(=O)NC7=O)C8=O)CC6)ncn5)CC4)C3)cc2F)CC1 (stereo not drawn) [Compound 24] | comparable to those in MOLM-13 | 1.2 ± 0.0 | 470 ± 80 nM | – | 36% and 36 ± 9% | comparable to those in MOLM-13 | submicromolar | – | – | –
CC1(C)CCN(Cc2cc(F)c(N3CC(=O)NC4(CCN(c5cc(NCc6cccc(CNC(=O)CCCCCCCCCCn7cc(CNc8cccc9c8C(=O)N(C8CCC(=O)NC8=O)C9=O)nn7)c6)ncn5)CC4)C3)cc2F)CC1 (stereo not drawn) [Compound 20] | comparable to those in MOLM-13 | 0.6 ± 0.0 | 860 ± 240 nM | 48% | 42% and 42 ± 13% | comparable to those in MOLM-13 | submicromolar | – | – | –
